{"source": "paper PMC4539532", "about": "(Bioorganic & medicinal chemistry letters, 2015)", "key": {"[1]": {"conditions": "cited from earlier work; for Tmax for brain: rat brain, intraperitoneal injection"}, "[2]": {"assay": "in vitro microsomal stability", "conditions": "n=2, T1/2=Ln2/κ"}, "mGlu4": {"target": "mGlu4 (Homo sapiens, UniProt Q14833)", "sequence (Q14833 33-912)": "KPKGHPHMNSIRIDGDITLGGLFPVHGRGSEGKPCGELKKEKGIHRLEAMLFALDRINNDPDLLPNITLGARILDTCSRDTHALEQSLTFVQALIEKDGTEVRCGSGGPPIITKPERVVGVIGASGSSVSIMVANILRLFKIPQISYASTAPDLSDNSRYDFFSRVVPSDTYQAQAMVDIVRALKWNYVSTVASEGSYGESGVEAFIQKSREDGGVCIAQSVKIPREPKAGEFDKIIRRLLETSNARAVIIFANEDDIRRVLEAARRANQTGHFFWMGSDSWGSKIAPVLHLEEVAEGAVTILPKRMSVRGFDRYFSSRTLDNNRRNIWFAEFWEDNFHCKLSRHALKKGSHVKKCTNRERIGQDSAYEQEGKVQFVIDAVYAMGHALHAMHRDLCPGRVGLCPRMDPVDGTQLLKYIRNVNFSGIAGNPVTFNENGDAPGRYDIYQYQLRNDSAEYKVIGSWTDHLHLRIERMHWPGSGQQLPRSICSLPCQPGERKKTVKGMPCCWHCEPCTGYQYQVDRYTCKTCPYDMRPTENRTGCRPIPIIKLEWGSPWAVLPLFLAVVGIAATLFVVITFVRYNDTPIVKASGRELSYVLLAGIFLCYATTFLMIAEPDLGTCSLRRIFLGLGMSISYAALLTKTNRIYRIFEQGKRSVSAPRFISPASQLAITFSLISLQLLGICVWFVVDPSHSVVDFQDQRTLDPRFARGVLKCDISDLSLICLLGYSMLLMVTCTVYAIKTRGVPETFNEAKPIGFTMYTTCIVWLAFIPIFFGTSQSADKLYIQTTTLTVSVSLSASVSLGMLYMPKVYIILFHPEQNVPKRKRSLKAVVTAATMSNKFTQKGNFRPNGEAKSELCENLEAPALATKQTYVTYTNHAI", "assay": "competitive binding assay with [^3H]2 in mGlu4 transfected CHO cells", "conditions": "14 versus 13; 23 versus 2"}, "mGlu8": {"target": "mGlu8 (Homo sapiens, UniProt O00222)", "assay": "selectivity functional assay on mGlu8", "format": "cell-based"}, "mGlu6": {"target": "mGlu6 (Homo sapiens, UniProt O15303)", "sequence (O15303 25-877)": "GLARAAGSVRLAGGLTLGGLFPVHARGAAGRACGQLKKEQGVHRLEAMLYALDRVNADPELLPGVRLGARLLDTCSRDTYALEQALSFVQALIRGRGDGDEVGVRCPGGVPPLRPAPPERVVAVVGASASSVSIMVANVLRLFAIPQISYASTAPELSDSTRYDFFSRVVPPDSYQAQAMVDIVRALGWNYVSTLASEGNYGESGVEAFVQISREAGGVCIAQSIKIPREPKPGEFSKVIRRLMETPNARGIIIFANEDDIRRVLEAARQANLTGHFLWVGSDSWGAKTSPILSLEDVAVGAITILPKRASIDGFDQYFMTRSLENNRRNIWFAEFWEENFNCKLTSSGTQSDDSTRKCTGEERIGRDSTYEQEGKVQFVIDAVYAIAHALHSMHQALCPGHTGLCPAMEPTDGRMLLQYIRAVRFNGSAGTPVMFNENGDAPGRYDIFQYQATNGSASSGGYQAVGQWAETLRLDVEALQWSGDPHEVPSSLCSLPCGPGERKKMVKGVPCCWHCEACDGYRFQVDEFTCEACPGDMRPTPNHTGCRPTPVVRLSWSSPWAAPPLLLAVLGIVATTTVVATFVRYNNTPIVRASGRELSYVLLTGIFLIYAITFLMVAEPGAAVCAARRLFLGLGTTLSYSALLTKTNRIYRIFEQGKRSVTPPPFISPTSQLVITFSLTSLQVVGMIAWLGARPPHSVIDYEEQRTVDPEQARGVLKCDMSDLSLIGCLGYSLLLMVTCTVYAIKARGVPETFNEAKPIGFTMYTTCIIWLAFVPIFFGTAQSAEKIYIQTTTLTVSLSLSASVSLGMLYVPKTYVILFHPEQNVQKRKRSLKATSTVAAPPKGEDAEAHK", "assay": "selectivity functional assay on mGlu6", "format": "cell-based"}, "mGlu2": {"target": "mGlu2 (Homo sapiens, UniProt Q14416)", "sequence (Q14416 19-872)": "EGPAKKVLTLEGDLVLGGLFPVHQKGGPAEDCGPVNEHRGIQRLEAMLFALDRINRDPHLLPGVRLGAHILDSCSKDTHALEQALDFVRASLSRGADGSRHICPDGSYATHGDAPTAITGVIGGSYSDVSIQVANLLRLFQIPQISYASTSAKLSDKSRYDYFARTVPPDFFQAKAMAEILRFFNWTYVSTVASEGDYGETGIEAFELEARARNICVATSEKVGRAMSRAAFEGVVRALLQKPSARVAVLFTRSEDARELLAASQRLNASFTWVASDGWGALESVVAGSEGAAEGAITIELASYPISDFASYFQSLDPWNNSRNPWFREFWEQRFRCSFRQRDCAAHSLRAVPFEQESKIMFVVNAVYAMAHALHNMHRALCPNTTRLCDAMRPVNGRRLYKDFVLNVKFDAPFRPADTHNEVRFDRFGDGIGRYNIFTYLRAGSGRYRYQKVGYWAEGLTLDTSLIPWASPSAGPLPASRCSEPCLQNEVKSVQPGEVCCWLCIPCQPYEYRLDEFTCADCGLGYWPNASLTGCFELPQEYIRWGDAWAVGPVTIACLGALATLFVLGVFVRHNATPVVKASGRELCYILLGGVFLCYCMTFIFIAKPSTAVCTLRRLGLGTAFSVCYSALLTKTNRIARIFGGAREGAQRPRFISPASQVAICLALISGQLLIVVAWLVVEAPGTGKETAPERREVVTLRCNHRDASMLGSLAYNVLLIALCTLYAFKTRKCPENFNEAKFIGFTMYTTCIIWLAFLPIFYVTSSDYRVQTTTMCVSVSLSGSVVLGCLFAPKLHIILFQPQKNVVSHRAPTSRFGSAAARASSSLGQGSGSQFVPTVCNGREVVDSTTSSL", "assay": "selectivity functional assay on mGlu2", "format": "cell-based"}, "mGlu5": {"target": "mGlu5 (Homo sapiens, UniProt P41594)", "sequence (P41594 21-1212)": "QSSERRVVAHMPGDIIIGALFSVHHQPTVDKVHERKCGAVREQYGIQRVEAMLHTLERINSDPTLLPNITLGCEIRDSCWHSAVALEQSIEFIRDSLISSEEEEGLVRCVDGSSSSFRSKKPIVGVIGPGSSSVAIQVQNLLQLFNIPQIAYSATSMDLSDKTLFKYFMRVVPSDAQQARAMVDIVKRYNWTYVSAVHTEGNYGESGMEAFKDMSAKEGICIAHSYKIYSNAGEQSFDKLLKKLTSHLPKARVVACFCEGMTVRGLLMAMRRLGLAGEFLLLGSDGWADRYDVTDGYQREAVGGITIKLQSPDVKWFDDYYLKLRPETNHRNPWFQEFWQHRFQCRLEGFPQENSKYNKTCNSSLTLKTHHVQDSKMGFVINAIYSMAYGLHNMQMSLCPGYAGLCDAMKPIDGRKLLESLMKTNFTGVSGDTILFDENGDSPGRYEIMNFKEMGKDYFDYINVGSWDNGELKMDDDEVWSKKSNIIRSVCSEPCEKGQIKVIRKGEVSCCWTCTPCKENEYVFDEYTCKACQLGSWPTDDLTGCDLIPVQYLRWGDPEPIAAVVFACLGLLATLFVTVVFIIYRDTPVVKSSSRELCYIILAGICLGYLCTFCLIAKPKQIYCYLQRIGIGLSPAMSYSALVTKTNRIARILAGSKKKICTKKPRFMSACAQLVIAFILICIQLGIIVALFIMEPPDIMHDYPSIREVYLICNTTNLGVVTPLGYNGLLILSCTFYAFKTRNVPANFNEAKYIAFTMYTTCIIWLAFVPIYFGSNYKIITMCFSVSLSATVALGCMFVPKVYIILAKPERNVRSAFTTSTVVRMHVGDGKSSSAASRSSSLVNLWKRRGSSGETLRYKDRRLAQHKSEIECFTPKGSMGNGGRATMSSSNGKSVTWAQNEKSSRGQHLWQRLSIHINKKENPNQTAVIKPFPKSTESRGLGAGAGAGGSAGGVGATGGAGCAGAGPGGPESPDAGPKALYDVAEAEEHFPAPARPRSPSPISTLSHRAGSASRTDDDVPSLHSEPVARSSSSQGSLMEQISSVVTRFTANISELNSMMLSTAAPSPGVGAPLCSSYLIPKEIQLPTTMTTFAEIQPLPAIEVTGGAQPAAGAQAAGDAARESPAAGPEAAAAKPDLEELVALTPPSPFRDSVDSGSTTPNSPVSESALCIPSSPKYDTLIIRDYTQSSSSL", "assay": "selectivity functional assay on mGlu5", "format": "cell-based"}, "mGlu1": {"target": "mGlu1 (Homo sapiens, UniProt Q13255)", "sequence (Q13255 19-1194)": "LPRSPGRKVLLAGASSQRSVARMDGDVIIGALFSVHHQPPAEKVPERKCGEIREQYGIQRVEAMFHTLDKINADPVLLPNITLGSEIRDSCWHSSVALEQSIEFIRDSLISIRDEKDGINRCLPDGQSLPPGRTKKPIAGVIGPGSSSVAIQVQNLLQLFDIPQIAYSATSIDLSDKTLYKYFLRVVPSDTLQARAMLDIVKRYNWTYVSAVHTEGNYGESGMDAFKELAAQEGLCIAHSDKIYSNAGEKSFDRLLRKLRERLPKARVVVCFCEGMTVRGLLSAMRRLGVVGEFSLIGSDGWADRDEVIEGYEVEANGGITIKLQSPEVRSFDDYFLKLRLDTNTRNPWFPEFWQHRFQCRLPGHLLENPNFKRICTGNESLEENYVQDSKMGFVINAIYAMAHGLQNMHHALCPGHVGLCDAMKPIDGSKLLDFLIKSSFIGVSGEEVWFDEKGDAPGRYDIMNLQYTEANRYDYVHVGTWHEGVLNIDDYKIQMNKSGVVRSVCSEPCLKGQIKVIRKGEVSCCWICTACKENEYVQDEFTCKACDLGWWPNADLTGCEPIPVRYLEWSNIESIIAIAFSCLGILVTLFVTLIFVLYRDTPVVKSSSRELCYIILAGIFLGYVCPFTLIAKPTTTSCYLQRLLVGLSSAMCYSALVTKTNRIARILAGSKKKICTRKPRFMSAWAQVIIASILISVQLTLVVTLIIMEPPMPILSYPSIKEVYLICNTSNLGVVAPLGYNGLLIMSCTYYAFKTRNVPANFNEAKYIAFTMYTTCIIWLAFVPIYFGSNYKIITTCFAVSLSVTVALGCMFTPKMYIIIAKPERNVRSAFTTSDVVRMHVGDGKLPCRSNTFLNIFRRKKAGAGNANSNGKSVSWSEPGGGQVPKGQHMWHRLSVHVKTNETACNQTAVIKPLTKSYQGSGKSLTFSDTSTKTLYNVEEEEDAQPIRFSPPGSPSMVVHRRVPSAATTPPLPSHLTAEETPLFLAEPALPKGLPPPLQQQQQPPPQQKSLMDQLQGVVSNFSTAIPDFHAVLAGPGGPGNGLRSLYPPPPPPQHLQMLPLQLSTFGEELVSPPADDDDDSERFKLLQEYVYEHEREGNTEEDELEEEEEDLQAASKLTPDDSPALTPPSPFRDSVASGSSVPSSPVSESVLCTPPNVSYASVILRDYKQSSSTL", "assay": "selectivity functional assay on mGlu1", "format": "cell-based"}, "[3]": {"conditions": "PET ligand for PBR, cited from earlier work"}}}
{"smiles": "COc1cc(NC(=O)c2ccccn2)ccc1Cl", "note": "[Compound 2]", "values": [{"measurement": "Tmax for brain", "setting": "[1]", "value": 30, "unit": "min"}, {"measurement": "κ (decay constant, slope of log concentration vs time profile)", "setting": "[2]", "value": 0.141}]}
{"smiles": "O=C(Nc1cccc(OC(F)F)c1)c1ccccn1", "note": "[Compound 3]", "values": [{"measurement": "Tmax for brain", "setting": "[1]", "value": 30, "unit": "min"}, {"measurement": "brain:plasma (B/P) partition coefficient", "setting": "[1]; rat, AUC0–8h, Brain/AUC0–8h, Plasma", "value": 9.9}, {"measurement": "κ (decay constant, slope of log concentration vs time profile)", "setting": "[2]", "value": 0.132}]}
{"smiles": "Cc1ccnc(Nc2nc(-c3cn[nH]c3)c(C)s2)n1", "note": "[Compound 4]", "values": [{"measurement": "κ (decay constant, slope of log concentration vs time profile)", "setting": "[2]", "value": 0.099}]}
{"smiles": "CSc1cccc(NC(=O)c2ccccn2)c1", "note": "[Compound 14]", "values": [{"measurement": "fold enhancement in affinity", "setting": "mGlu4", "value": 2.8, "unit": "fold"}]}
{"smiles": "O=C(Nc1ccc(Cl)c(OCF)c1)c1ccccn1", "note": "[Compound 23]", "values": [{"measurement": "κ (decay constant, slope of log concentration vs time profile)", "setting": "[2]", "value": 0.120}, {"measurement": "fold enhancement in affinity", "setting": "mGlu4", "value": 1.6, "unit": "fold"}]}
{"smiles": "[2H]C([2H])(F)Oc1cc(NC(=O)c2ccccn2)ccc1Cl", "note": "[Compound 24]", "values": [{"measurement": "activity against mGlu8", "setting": "mGlu8", "value": "little activity"}, {"measurement": "activity against mGlu6", "setting": "mGlu6", "value": "little activity"}, {"measurement": "activity against mGlu2", "setting": "mGlu2", "value": "little activity"}, {"measurement": "κ (decay constant, slope of log concentration vs time profile)", "setting": "[2]", "value": 0.093}, {"measurement": "activity against mGlu5", "setting": "mGlu5", "value": "little activity"}, {"measurement": "activity against mGlu1", "setting": "mGlu1", "value": "little activity"}]}
{"smiles": "[2H]C([2H])([18F])Oc1ccc(OC)cc1CN(C(C)=O)c1cc(F)ccc1Oc1ccccc1", "note": "[N-(5-fluoro-2-phenoxyphenyl)-N-(2-[^18F]fluoromethoxy-d2-5-methoxybenzyl)acetamide]", "values": [{"measurement": "half time (T1/2) in the brain", "setting": "[3]; brain", "value": "> 60", "unit": "min"}, {"measurement": "half time (T1/2) in the plasma", "setting": "[3]; plasma", "value": 2.575, "unit": "min"}]}
